Experiment [1] concerns the target T1, K^b/β2m (Mus musculus, UniProt P01901).
T1 construct: The TDTF analysis was performed on the luminal domain of K^b, which was produced in E.coli; made in house
The experiment can be described thus: Competitive binding against SIINFEKTAMRAL measured by fluorescence anisotropy (IC50). Also noted: species or system murine. The procedure: Steady state measurements were performed with peptide-free folding reactions of K^b/β2m.
K^b was folded empty and then incubated with different concentrations of each peptide variant for five minutes. Then, the index peptide SIINFEKTAMRAL (fluorescently labeled on the lysine side chain) was added as a competitor, and the endpoint of its binding was measured by fluorescence anisotropy. From theory curves fitted to the data, we calculated the half-maximal concentration of inhibition of SIINFEKTAMRAL binding (IC50) for each modified peptide (Fig 6, S1F Fig).
Fig 6 Half-maximal concentration of peptide (IC50) required to inhibit the binding of the high affinity peptide SIINFEKTAMRAL. K^b/β2m complexes derived from the […] (B) structures were folded empty and then incubated for 5 minutes with different concentrations of full-length, truncated, or modified peptides. […] Binding curves (left) are of one representative experiment, and the IC50 values (right) are the average of three experiments.
For orientation: Fluorescence polarisation rises when a labelled molecule tumbles more slowly, as on binding a larger partner.

Experiment [2] addresses T2, cell surface K^b, RMA-S cells (Mus musculus, UniProt P01901).
T2 construct: endogenous in cells; host or cells: RMA-S cells (TAP-deficient)
T2 sequence (P01901 22-369): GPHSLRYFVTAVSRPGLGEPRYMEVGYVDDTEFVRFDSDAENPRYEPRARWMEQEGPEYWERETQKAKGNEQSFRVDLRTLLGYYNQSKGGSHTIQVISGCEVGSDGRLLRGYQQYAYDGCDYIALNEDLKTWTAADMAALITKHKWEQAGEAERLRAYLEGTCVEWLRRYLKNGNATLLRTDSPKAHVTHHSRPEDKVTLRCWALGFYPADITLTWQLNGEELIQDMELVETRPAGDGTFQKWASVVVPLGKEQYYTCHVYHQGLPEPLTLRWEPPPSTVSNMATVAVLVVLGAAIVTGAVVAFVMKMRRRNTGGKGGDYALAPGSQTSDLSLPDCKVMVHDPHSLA
T2 sequence (P01887 21-119 partner): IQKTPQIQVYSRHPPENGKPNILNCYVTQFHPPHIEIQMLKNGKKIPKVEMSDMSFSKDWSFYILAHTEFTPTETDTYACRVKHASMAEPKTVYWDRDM
The experiment can be described thus: Brefeldin A (BFA) decay assay, cell surface K^b on RMA-S cells. The settings on record: 10 μM peptide, 10 μg/ml BFA, 37°C, after four hours, MAb Y3, flow cytometry, n = 3. It is filed as cell-based, murine. The procedure: RMA-S cells were kept overnight at 25°C and at t = 0 treated with 10 μg/ml BFA (Applichem or Alfa Aesar) and with 10 μM peptide and transferred to 37°C for a maximum of 4 hours. At different time points, cells were washed twice with 1x PBS/0.01% NaN3, and cell surface K^b was measured with the MAb Y3 by flow cytometry.
We then incubated these cells with each peptide and measured the surface residence time of the K^b/peptide complexes by withdrawing aliquots of cells at different times, fixing, and staining with the antibody Y3 followed by flow cytometry (Fig 7, S1I Fig).
RMA-S cells were incubated overnight at 25°C, then 10 μM peptide (as indicated) was added to the medium, and cells were transferred to 37°C. H-2K^b surface levels were determined at each time point with MAb Y3 and flow cytometry. Averages ± SEM (n = 3) are normalized to initial mean fluorescence intensity (MFI).
For orientation: A flow cytometer gives signals particle by particle.

The target in experiment [3] is T1, K^b/β2m. Description: Thermal denaturation by tryptophan fluorescence (TDTF) of K^b/β2m/peptide complexes. The settings on record: for ∆GTDTF: derived from TDTF measurements by the two-state, single-transition model. It counts as binding, murine.
Protocol: TDTF measurements and Tm determination were performed exactly as described previously [36].
To test our ranking by experiment, we next used the TDTF (thermal denaturation measured by tryptophan fluorescence) assay to determine the Tm of the K^b/peptide complexes. In this assay, thermal unfolding of the class I molecule is measured by the decrease in fluorescence intensity that occurs when the tryptophan indoles are exposed to the aqueous environment [49, 50]. The TDTF analysis was performed on the luminal domain of K^b, which was produced in E.coli and folded from inclusion bodies as a complex with human β2m and with or without peptide [36]. […] From the Tm values, we derived the ΔΔGTDTF values using the two-state model of denaturation [50, 51].
The folded heavy chain/β2m/peptide complex was prepared by diluting 200 ‏‏µg of the K^b heavy chain, 200 ‏‏µg of human β2m (both produced in E. coli), and none or 10 µM of peptide into 2 ml of the refolding buffer (100 mM Tris-Cl pH 8, 0.5 M arginine, 2 mM EDTA, 0.5 mM oxidized glutathione, 5 mM reduced glutathione), and the reaction was incubated at 4 °C for 48 hours, then ultracentrifuged at 10^5 ×g for 20 min to sediment aggregates. Concentration of soluble protein was then determined using the Bradford assay.
The folded complex was measured in PBS (150 mM NaCl, 10 mM phosphate pH 7.4) in a 1 cm × 1 cm cuvette in a Cary Eclipse fluorimeter (Agilent, Waldbronn, Germany) equipped with a Peltier heater and an in-cuvette thermocouple. The sample was heated at 0.30 K/min, and fluorescence values (λex= 290 nm, λem= 345 nm) were recorded every 0.1 K.
The differentials (F(T+∆T) – F(T))/∆T (with F = fluorescence intensity and ∆T = the temperature interval of recording) were smoothed over 40 points. The minimum of the resulting curve allows a simple optical assessment of the Tm. For display, LOWESS fits [17] to the differentials were performed with GraphPad Prism (GraphPad, La Jolla, CA, USA).
The binding free energy components were derived from the TDTF measurements according to the two-state, single-transition model [18,19]. […]
Where [4] appears, read: K^b/β2m folded empty, incubated 5 min with peptide, then 100 nM SIINFEKTAMRAL, fluorescence anisotropy endpoint, average of three experiments, read-out: IC50, inhibition of SIINFEKTAMRAL binding.

Read-outs that look alike come from different tables or passages of the source. Ends that are not written are not given here.

T1 sequence (P61769 21-119 partner, one chain of several): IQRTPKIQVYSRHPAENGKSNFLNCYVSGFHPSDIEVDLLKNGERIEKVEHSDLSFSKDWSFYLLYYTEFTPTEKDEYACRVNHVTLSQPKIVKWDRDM

Broadly, the IC50 is the concentration needed to halve the response being measured. Consider APGNYPAL [APGNYPAL], for which the IC50 on K^b/β2m [1] was 150 nM.

In the case of FAPGNYPA, the IC50 at K^b/β2m [1] was found to be 18000 nM.

With `CC(C)C[C@H](NC(=O)[C@H](C)NC(=O)[C@@H]1CCCN1C(=O)[C@H](Cc1ccc(O)cc1)NC(=O)[C@H](CC(N)=O)NC(=O)CNC(=O)[C@@H]1CCCN1C(=O)[C@H](C)NC(=O)[C@@H](N)Cc1ccccc1)C(=O)O` [FAPGNYPAL], the “K^b/peptide complexes remaining on the cell surface” value in experiment [2] is “more than 80%”.

As to SIINFEKA, the IC50 at K^b/β2m [1] (setting [4]) is 120 nM.

SIINFEKG: the “∆GTDTF” value on K^b/β2m [3] is -92.6 ± 9.2 kcal/mol.

For SIINFEKL-Cdel, the “∆GTDTF” value on K^b/β2m [3] is -83.8 ± 8.3 kcal/mol. Moreover, the “∆∆GTDTF” value on K^b/β2m [3] (derived from Tm by the two-state model, relative to the full-length peptide) is 20.7 kcal/mol.

`CC[C@H](C)[C@H](NC(=O)[C@@H](NC(=O)[C@@H](N)CO)[C@@H](C)CC)C(=O)N[C@@H](CC(N)=O)C(=O)N[C@@H](Cc1ccccc1)C(=O)N[C@@H](CCC(=O)O)C(=O)N[C@@H](CCCCN)C(=O)N[C@@H](CC(C)C)C(=O)O` [reference compound]: the IC50 at K^b/β2m [1] (setting [4]) was 190 nM. Further, the “K^b/peptide complexes remaining on the cell surface” value in experiment [2] is on record as “more than 80%”.

Source of the values: paper PMC4535769, “The Carboxy Terminus of the Ligand Peptide Determines the Stability of the MHC Class I Molecule H-2K^b: A Combined Molecular Dynamics and Experimental Study” (PLoS ONE, 2015).
